Data published in patent US20260232682A1, “GSPT1 DEGRADER COMPOUNDS” (Captor Therapeutics S.A., priority 2023, published 2026).

Assays:
GSPT1-HiBiT HEK293 cells = experiment: Cell Viability-CTG assay accompanying the Nano-Glo HiBiT assay; format: cell-based; details: 6 hours treatment, viability of GSPT1-HiBiT HEK293 cells
Procedure: In parallel, the Cell Viability-CTG assay was performed to ensure that the potential decrease of the luminescent signal observed in the Nano-Glo HiBiT assay is a result of protein degradation and not a result of decreasing cell viability. For CTG assay accompanying the Nano-Glo HiBiT assay, cells were cultured, seeded and treated as described above. After 6 hours of incubation (37° C., 5% CO2), plates were removed from the incubator and let to equilibrate to RT. Luminescent signal detection was conducted using the CellTiter-Glo Lumiescent Cell Viability Assay (Promega, cat. nr G7573). 10 μL of the Cell Titer Glo reagent was added per well, plates were shaken to facilitate lysis (460 rpm, 4 min, RT) and incubated in the dark for the following 8 min. Luminescence was read using the CLARIOstar multimode plate reader (BMG LABTECH). The raw data (the relative luminescence unit values, RLU) were uploaded under the relevant protocol and analysed in CDDVault data management platform, in a manner similar to the description above. The Mean Minimum values were calculated in CDDVault using non-linear regression and appropriate equations.

[1] = molecular target: [GSPT1]-[compound of formula (I)]-[CRBN/DDB1] complex (Homo sapiens, UniProt P15170+Q96SW2); experiment: HTRF ternary complex assay (GSPT1); format: binding; details: read-out: HTRF ternary complex Average pEC50 by molecule (converted)
Sequence of [GSPT1]-[compound of formula (I)]-[CRBN/DDB1] complex (P15170 whole entry): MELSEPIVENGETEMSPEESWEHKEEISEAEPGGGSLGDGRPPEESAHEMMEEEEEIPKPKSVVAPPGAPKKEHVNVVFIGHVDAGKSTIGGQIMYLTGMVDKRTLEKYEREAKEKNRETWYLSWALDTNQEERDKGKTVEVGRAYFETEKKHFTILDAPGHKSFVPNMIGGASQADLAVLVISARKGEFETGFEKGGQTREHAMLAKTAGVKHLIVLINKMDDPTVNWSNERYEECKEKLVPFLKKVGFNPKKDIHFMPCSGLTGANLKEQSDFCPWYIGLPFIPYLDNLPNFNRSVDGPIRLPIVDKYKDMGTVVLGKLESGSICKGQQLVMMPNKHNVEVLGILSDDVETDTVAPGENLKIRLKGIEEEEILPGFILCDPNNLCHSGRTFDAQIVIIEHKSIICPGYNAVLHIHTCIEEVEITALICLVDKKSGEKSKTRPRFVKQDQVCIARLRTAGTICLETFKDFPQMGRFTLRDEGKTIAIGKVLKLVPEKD
Sequence of [GSPT1]-[compound of formula (I)]-[CRBN/DDB1] complex (Q96SW2 whole entry): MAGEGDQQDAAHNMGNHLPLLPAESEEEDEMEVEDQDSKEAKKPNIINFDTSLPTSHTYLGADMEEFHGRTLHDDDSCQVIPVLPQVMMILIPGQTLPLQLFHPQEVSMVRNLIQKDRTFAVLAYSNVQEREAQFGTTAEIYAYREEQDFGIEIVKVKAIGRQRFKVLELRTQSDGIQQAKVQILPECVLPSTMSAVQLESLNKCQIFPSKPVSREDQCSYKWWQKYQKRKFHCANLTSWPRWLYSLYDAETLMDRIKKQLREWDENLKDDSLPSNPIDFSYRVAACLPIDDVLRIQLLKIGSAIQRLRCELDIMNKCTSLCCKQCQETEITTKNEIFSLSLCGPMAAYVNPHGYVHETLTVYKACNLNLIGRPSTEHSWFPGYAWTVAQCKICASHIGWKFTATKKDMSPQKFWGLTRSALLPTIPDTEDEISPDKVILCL
Sequence of [GSPT1]-[compound of formula (I)]-[CRBN/DDB1] complex (Q16531 whole entry partner): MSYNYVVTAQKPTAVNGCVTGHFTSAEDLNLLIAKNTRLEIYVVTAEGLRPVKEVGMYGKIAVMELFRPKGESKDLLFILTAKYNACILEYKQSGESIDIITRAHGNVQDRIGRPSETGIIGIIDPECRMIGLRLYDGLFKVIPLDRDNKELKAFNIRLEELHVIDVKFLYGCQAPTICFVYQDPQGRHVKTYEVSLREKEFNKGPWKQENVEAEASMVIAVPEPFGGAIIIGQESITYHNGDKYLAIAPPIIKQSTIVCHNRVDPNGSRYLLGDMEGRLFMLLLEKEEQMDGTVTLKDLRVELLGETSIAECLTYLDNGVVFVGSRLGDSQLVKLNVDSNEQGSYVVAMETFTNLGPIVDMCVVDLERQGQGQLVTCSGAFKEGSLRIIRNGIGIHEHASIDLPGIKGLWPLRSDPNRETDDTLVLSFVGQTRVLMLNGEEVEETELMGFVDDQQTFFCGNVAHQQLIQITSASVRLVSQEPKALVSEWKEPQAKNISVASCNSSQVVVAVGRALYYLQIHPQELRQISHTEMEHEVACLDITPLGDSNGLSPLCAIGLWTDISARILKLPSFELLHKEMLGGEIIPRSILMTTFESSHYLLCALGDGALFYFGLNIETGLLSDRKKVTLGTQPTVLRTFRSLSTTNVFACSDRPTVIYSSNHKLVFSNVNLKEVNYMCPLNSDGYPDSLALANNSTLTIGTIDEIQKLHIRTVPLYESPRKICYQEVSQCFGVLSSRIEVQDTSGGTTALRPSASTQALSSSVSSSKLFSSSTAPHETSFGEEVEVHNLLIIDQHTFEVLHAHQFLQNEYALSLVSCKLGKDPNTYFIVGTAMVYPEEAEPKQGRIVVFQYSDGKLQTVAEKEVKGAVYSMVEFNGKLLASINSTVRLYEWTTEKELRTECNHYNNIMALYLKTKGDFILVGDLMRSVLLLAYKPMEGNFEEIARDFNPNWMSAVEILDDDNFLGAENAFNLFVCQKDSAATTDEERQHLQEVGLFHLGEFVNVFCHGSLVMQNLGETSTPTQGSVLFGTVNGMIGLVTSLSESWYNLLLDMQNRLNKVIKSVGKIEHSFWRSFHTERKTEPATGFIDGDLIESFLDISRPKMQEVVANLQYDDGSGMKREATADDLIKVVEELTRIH
In short: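 Compounds in dose-response were incubated 180 min at 25 °C with 48 nM GSPT1 and 52.8 nM 6×His-CRBN/DDB1, plus Streptavidin-Eu cryptate and anti-6×His-d2, in buffer with 1 mM DTT and 0.5% DMSO. TR-FRET (665/620) was normalized to DMSO background and fitted with a Hill slope model for EC50/pEC50.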

[2] = molecular target: CRBN/DDB1 protein complex (Homo sapiens, UniProt Q96SW2); experiment: CRBN displacement TR-FRET assay; details: Thalidomide-Red tracer, 6×His-CRBN/DDB1; read-out: CRBN binding Ki
Sequence of CRBN/DDB1 protein complex (Q96SW2 whole entry, species assumed): as the sequence (Q96SW2 whole entry) above
Sequence of CRBN/DDB1 protein complex (Q16531 whole entry partner, species assumed): as the sequence (Q16531 whole entry partner) above
In short: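 Test compound at various concentrations competed with 6.8 nM Thalidomide-Red tracer for 5 nM 6×His-CRBN/DDB1, detected with 0.5 nM anti-His-Eu cryptate in buffer with 1 mM DTT and 1% DMSO. Incubation ran 180 min at room temperature with a time-resolved fluorescence read-out. IC50 values were converted to Ki by Cheng–Prusoff using tracer Kd and protein and tracer concentrations.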

[3] = molecular target: T1, [IKZF1 ZF2]-[compound]-[CRBN/DDB1] ternary complex (Homo sapiens, UniProt Q13422+Q96SW2); experiment: AlphaLISA assay for off-target recruitment detection, IKZF1 ZF2; format: binding; details: 1 μM compound; normalized to Lenalidomide; read-out: Normalized ternary complex response, IKZF1 ZF2
T1 construct: IKZF1 ZF2
T1 sequence (Q13422 145-167 limits assumed): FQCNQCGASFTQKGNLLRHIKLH
T1 sequence (Q96SW2 whole entry): as the sequence (Q96SW2 whole entry) above
T1 sequence (Q16531 whole entry partner): as the sequence (Q16531 whole entry partner) above
In short: (§1)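 Neo-substrate with 40 μg/ml donor beads and 200 nM 6×His-CRBN/DDB1 with 40 μg/ml anti-His acceptor beads were each prepared in PBS pH 7.4 with Tween-20 and 1 mM DTT, preincubated 30 min at RT, then mixed. Compounds at 2% DMSO were incubated 30 min at 25 °C, read at 680/615 nm, and normalised between DMSO background and reference glue maximum.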

[4] = molecular target: T2, [SALL4 ZF2]-[compound]-[CRBN/DDB1] ternary complex (Homo sapiens, UniProt Q96SW2+Q9UJQ4); experiment: AlphaLISA assay for off-target recruitment detection, SALL4 ZF2; format: binding; details: 1 μM compound; normalized to Lenalidomide; read-out: Normalized ternary complex response, SALL4 ZF2
T2 construct: SALL4 ZF2
T2 sequence (Q9UJQ4 410-432 limits assumed): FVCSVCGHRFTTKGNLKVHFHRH
T2 sequence (Q96SW2 whole entry): as the sequence (Q96SW2 whole entry) above
T2 sequence (Q16531 whole entry partner): as the sequence (Q16531 whole entry partner) above
In short: as §1

Row | SMILES | CTG assay Mean minimum (GSPT1-HiBiT HEK293 cells) | EC50 [1] [nM] | Ki [2] [nM] | activation at 1 µM [3] [%] | activation at 1 µM [4] [%]
1 | Cc1ccc(NC(=O)OCc2ccc3cc([C@@H]4CCC(=O)NC4=O)c(C)nc3c2)cc1Cl [Compound 38, (3-(2,6-dioxopiperidin-3-yl)-2-methylquinolin-7-yl)methyl (3-chloro-4-methylphenyl)carbamate] | ++++ (++++≥75% of viability of the HiBiT-GSPT1 HEK293 cells) | 316 to 3160 | > 1000 | < 10 | < 10
2 | Cc1nc2cc(COC(=O)Nc3ccc(Cl)c(Cl)c3)ccc2cc1C1CCC(=O)NC1=O (stereo not shown) [Compound 12, (3-(2,6-dioxopiperidin-3-yl)-2-methylquinolin-7-yl)methyl (3,4-dichlorophenyl)carbamate] | ++++ (++++≥75% of viability of the HiBiT-GSPT1 HEK293 cells) | 316 to 3160 | > 1000 | < 10 | < 10
3 | COc1ccc(NC(=O)OCc2ccc3cc(C4CCC(=O)NC4=O)c(C)nc3c2)nn1 (stereo not shown) [Compound 45, (3-(2,6-dioxopiperidin-3-yl)-2-methylquinolin-7-yl)methyl (6-methoxypyridazin-3-yl)carbamate] | ++++ (++++≥75% of viability of the HiBiT-GSPT1 HEK293 cells) | 316 to 3160 | > 1000 | < 10 | < 10
4 | Cc1ccc(NC(=O)OCc2ccc3cc(C4CCC(=O)NC4=O)c(C)nc3c2F)cc1Cl (stereo not shown) [Compound 50, (3-(2,6-dioxopiperidin-3-yl)-8-fluoro-2-methylquinolin-7-yl)methyl (3-chloro-4-methylphenyl)carbamate] | ++++ (++++≥75% of viability of the HiBiT-GSPT1 HEK293 cells) | 316 to 3160 | 500 to 1000 | < 10 | < 10
5 | Cc1nc2cc(COC(=O)NC3CCC(C(C)(C)C)CC3)ccc2cc1C1CCC(=O)NC1=O (stereo not shown) [Compound 55, (3-(2,6-dioxopiperidin-3-yl)-2-methylquinolin-7-yl)methyl (4-(tert-butyl)cyclohexyl)carbamate] | ++++ (++++≥75% of viability of the HiBiT-GSPT1 HEK293 cells) | 316 to 3160 | 500 to 1000 | < 10 | < 10
6 | Cc1ccc(NC(=O)OCc2ccc3cc(C4(F)CCC(=O)NC4=O)c(C)nc3c2)cc1Cl (stereo not shown) [Compound 74, (3-(3-fluoro-2,6-dioxopiperidin-3-yl)-2-methylquinolin-7-yl)methyl (3-chloro-4-methylphenyl)carbamate] | ++++ (++++≥75% of viability of the HiBiT-GSPT1 HEK293 cells) | > 3160 | > 1000 | < 10 | < 10
7 | Cc1nc2ccc(CNC(=O)Nc3cc(C(C)(C)C)no3)cc2cc1N1CCC(=O)NC1=O [Compound 67, 1-(3-(tert-butyl)isoxazol-5-yl)-3-((3-(2,4-dioxotetrahydropyrimidin-1(2H)-yl)-2-methylquinolin-6-yl)methyl)urea] | ++++ (++++≥75% of viability of the HiBiT-GSPT1 HEK293 cells) | < 316 | < 500 | ≥ 50 | 25 to 50
8 | Cc1nc2cc(COC(=O)Nc3cc(C(F)(F)F)n[nH]3)ccc2cc1C1CCC(=O)NC1=O (stereo not shown) [Compound 69, (3-(2,6-dioxopiperidin-3-yl)-2-methylquinolin-7-yl)methyl (3-(trifluoromethyl)-1H-pyrazol-5-yl)carbamate] | ++++ (++++≥75% of viability of the HiBiT-GSPT1 HEK293 cells) | 316 to 3160 | > 1000 | < 10 | < 10
9 | Cc1nc2cc(COC(=O)Nc3ccc(C(C)(C)C)cc3)ccc2cc1C1CCC(=O)NC1=O (stereo not shown) [Compound 8, (3-(2,6-dioxopiperidin-3-yl)-2-methylquinolin-7-yl)methyl (4-(tert-butyl)phenyl)carbamate] | ++++ (++++≥75% of viability of the HiBiT-GSPT1 HEK293 cells) | 316 to 3160 | < 500 | < 10 | < 10
10 | Cc1ccc(NC(=O)OCc2ccc3cc([C@H]4CCC(=O)NC4=O)c(C)nc3c2)cc1Cl [Compound 39, (3-(2,6-dioxopiperidin-3-yl)-2-methylquinolin-7-yl)methyl (3-chloro-4-methylphenyl)carbamate] | ++++ (++++≥75% of viability of the HiBiT-GSPT1 HEK293 cells) | 316 to 3160 | 500 to 1000 | < 10 | < 10
11 | Cc1nc2cc(COC(=O)Nc3cc(C(C)(C)C)no3)ccc2cc1N1CCC(=O)NC1=O [Compound 72, (3-(2,4-dioxotetrahydropyrimidin-1(2H)-yl)-2-methylquinolin-7-yl)methyl (3-(tert-butyl)isoxazol-5-yl)carbamate] | ++++ (++++≥75% of viability of the HiBiT-GSPT1 HEK293 cells) | 316 to 3160 | 500 to 1000 | < 10 | < 10
12 | Cc1nc2cc(COC(=O)Nc3nc(C(C)(C)C)no3)ccc2cc1C1CCC(=O)NC1=O (stereo not shown) [Compound 80, (3-(2,6-dioxopiperidin-3-yl)-2-methylquinolin-7-yl)methyl (3-(tert-butyl)-1,2,4-oxadiazol-5-yl)carbamate] | ++++ (++++≥75% of viability of the HiBiT-GSPT1 HEK293 cells) | 316 to 3160 | 500 to 1000 | < 10 | < 10
13 | Cc1nc2cc(COC(=O)Nc3cccc(-c4ccccc4)c3)ccc2cc1C1CCC(=O)NC1=O (stereo not shown) [Compound 46, (3-(2,6-dioxopiperidin-3-yl)-2-methylquinolin-7-yl)methyl [1,1′-biphenyl]-3-ylcarbamate] | ++++ (++++≥75% of viability of the HiBiT-GSPT1 HEK293 cells) | 316 to 3160 | 500 to 1000 | < 10 | < 10
14 | Cc1ccc(NC(=O)NCc2ccc3cc(N4CCC(=O)NC4=O)c(C)nc3c2)cc1Cl [Compound 27, 1-(3-chloro-4-methylphenyl)-3-((3-(2,4-dioxotetrahydropyrimidin-1(2H)-yl)-2-methylquinolin-7-yl)methyl)urea] | ++++ (++++≥75% of viability of the HiBiT-GSPT1 HEK293 cells) | < 316 | < 500 | < 10 | < 10
15 | Cc1ccc(NC(=O)OCc2cc3nc(C)c(C4CCC(=O)NC4=O)cc3cc2F)cc1Cl (stereo not shown) [Compound 49, (3-(2,6-dioxopiperidin-3-yl)-6-fluoro-2-methylquinolin-7-yl)methyl (3-chloro-4-methylphenyl)carbamate] | ++++ (++++≥75% of viability of the HiBiT-GSPT1 HEK293 cells) | 316 to 3160 | > 1000 | < 10 | < 10
16 | Cc1ccc(NC(=O)CCc2ccc3cc(C4CCC(=O)NC4=O)c(C)nc3c2)cc1Cl (stereo not shown) [Compound 32, N-(3-chloro-4-methylphenyl)-3-(3-(2,6-dioxopiperidin-3-yl)-2-methylquinolin-7-yl)propanamide] | ++++ (++++≥75% of viability of the HiBiT-GSPT1 HEK293 cells) | 316 to 3160 | 500 to 1000 | < 10 | < 10
17 | Cc1ccc(NC(=O)OCc2cc(F)c3cc(C4CCC(=O)NC4=O)c(C)nc3c2)cc1Cl (stereo not shown) [Compound 22, (3-(2,6-dioxopiperidin-3-yl)-5-fluoro-2-methylquinolin-7-yl)methyl (3-chloro-4-methylphenyl)carbamate] | ++++ (++++≥75% of viability of the HiBiT-GSPT1 HEK293 cells) | 316 to 3160 | > 1000 | < 10 | < 10
